18 molecules from paper PMC9329325, “Design, synthesis, in vitro biological assessment and molecular modeling insights for novel 3-(naphthalen-1-yl)-4,5-dihydropyrazoles as anticancer agents with potential EGFR inhibitory activity” (Scientific Reports, 2022) can be followed below.

The term IC50 denotes the concentration that gives 50% inhibition.

Each structure is given as a SMILES string.

For one assay, the system named is MDA-MB-231. As to the kind of experiment: MTT anti-proliferative assay, MDA-MB-231. It counts as cell-based, human. The settings on record: mean ± S.D. of 3 separate experiments. As for the experimental part:
(§1) The cytotoxic effects of herein prepared pyrazole- thiazol-4-one hybrids 9a-p against BC MDA-MB-231 and T-47D cell lines, obtained from American Type Culture Collection (ATCC), were determined using the MTT assay protocol. It is worth to mention that the selected cancer cell lines in this study are EGFR-expressing cell lines[25]–[28]. Doxorubicin and Erolitinib were utilized as positive control (Table 1).
(§2) All the biological assays conducted in this study were performed as reported earlier; MTT cytotoxicity[31],[32] cell cycle, Annexin V-FITC Apoptosis[34]–[36] and EGFR kinase[37] assays, (Supplementary Materials).
(§3) 1. Anti-proliferative activity
(§4) The two examined breast cancer cell lines (MDA-MB-231 and T-47D) as well as the normal breast MCF-10A cells have been obtained from American Type Culture Collection (ATCC). Cells lines were maintained as monolayers in Dulbecco’s Modified Eagle’s Medium (DMEM) supplemented with 10% FBS, 2 mM L-glutamine, 100 U/ml penicillin and 100µg/ml streptomycin sulfate. Cells were sub-cultured with trypsine /EDTA solution, counted with haemocytometer and plated onto 96-well plates (5000 cells/well) and left overnight to form a semi-confluent monolayer.
(§5) Cell monolayers were treated in quadrates with vehicle (DMSO, 0.1% v/v), test samples (thiazolyl-pyrazolines 9a-p) or Doxorubicin as positive control for an exposure time of 48 h. At the end of exposure, MTT solution in PBS (5 mg/ml) was then added to all well including no cell blank and left to incubate for 90 min. The formation of formazan crystals were visually confirmed using phase contract microscopy. DMSO (100 µl/well) was added to dissolve the formazan crystals with shaking for 10 min after which the absorbance was read at 590 nm against no cell blanks on a FLuo Star Optima microplate reader (BMG technologies, Germany). Cell proliferation was calculated comparing the OD values of the DMSO control wells and those of the samples represented as % proliferation to the control. Dose-response experiment was performed on samples producing > or =50% loss of cell proliferation using five serial 2-fold dilutions (50, 25, 12.5, 6.25 and 3.125 µM) of the sample. IC50 values (concentration of sample causing 50% loss of cell proliferation of the vehicle control) were calculated using non-linear regression curve fitting of the dose response plots on GraphPad Prism V.6.0 software. […]

Another assay deals with T-47D. As to the kind of experiment: MTT anti-proliferative assay, T-47D. It counts as cell-based, human. The settings on record: 48 h exposure, mean ± S.D. of 3 separate experiments. How it is done:
as §1, §2, §3, §4, §5
A general note: Tetrazolium dyes change colour on reduction, which living cells bring about.

For the next assay, the system named is MCF-10A. As to the kind of experiment: MTT cytotoxicity toward normal breast MCF-10A cells. It counts as cell-based. The settings on record: Homo sapiens, 48 h exposure, mean ± S.D. of 3 separate experiments. As for the experimental part:
as §2, §3, §4, §5

Assay [1] deals with MDA-MB-231 cells. As to the kind of experiment: Cell cycle analysis by PI flow cytometry. It counts as cell-based, human. Particulars: at IC50 concentration (9g 0.62 µM, 9k 1.14 µM), 24 h; for %Sub-G1: control 2.13%; for %S: control 32.11%. How it is done:
All the biological assays conducted in this study were performed as reported earlier; MTT cytotoxicity[31],[32] cell cycle, Annexin V-FITC Apoptosis[34]–[36] and EGFR kinase[37] assays, (Supplementary Materials). […]
The two examined breast cancer cell lines (MDA-MB-231 and T-47D) as well as the normal breast MCF-10A cells have been obtained from American Type Culture Collection (ATCC). Cells lines were maintained as monolayers in Dulbecco’s Modified Eagle’s Medium (DMEM) supplemented with 10% FBS, 2 mM L-glutamine, 100 U/ml penicillin and 100µg/ml streptomycin […]
sulfate. […]
Breast cancer MDA-MB-231 cells were treated with compounds 9g and 9k for 24 h (at their IC50 concentration), and then cells were washed twice with ice-cold phosphate buffered saline (PBS). Subsequently, the treated cells were collected by centrifugation, fixed in ice-cold 70% (v/v) ethanol, washed with PBS, re-suspended with 100 μg/mL RNase, stained with 40 μg/mL PI, and analyzed by flow cytometry using FACS Calibur (Becton Dickinson, BD, Franklin Lakes, NJ, USA). The cell cycle distributions were calculated using CellQuest software 5.1 (Becton
(In general: Flow cytometry measures light scatter and fluorescence of single cells or particles in a stream.)

Assay [2] deals with MDA-MB-231 cells. As to the kind of experiment: Annexin V-FITC/PI apoptosis assay. It counts as cell-based, human. Particulars: at IC50 concentration (9g 0.62 µM, 9k 1.14 µM), 48 h; for Late apoptosis (upper right %): control 0.21%; for Early apoptosis (lower right %): control 0.73%; for Total apoptosis (L.R % + U.R %): control 0.94%. How it is done:
as §2
3. Annexin V-FITC Apoptosis Assay
Phosphatidylserine externalization was assayed using Annexin V-FITC/PI apoptosis detection kit (BD Biosciences, USA) according to the manufacturer’s instructions. Breast cancer MDA-MB-231 cells were cultured to a monolayer then treated with compounds 9g and 9k at their IC50 concentration. Briefly, cells were then harvested via trypsinization, and rinsed twice in PBS followed by binding buffer. Moreover, cells were re-suspended in 100 μL of binding buffer with the addition of 1 μL of FITC-Annexin V followed by an incubation period of 30 min at 4 °C. Cells were then rinsed in binding buffer and resuspended in 150 μL of binding buffer with the addition

A further assay addresses EGFR (Homo sapiens, UniProt P00533). As to the kind of experiment: EGFR kinase inhibitory activity (ADP-Glo Kinase Assay). On the technique in general: In ADP-Glo the light output rises with the ADP produced.
[3] abbreviates: Homo sapiens, MDA-MB-231, 48 h, 48 h exposure.

EGFR, sequence (P00533 25-1210): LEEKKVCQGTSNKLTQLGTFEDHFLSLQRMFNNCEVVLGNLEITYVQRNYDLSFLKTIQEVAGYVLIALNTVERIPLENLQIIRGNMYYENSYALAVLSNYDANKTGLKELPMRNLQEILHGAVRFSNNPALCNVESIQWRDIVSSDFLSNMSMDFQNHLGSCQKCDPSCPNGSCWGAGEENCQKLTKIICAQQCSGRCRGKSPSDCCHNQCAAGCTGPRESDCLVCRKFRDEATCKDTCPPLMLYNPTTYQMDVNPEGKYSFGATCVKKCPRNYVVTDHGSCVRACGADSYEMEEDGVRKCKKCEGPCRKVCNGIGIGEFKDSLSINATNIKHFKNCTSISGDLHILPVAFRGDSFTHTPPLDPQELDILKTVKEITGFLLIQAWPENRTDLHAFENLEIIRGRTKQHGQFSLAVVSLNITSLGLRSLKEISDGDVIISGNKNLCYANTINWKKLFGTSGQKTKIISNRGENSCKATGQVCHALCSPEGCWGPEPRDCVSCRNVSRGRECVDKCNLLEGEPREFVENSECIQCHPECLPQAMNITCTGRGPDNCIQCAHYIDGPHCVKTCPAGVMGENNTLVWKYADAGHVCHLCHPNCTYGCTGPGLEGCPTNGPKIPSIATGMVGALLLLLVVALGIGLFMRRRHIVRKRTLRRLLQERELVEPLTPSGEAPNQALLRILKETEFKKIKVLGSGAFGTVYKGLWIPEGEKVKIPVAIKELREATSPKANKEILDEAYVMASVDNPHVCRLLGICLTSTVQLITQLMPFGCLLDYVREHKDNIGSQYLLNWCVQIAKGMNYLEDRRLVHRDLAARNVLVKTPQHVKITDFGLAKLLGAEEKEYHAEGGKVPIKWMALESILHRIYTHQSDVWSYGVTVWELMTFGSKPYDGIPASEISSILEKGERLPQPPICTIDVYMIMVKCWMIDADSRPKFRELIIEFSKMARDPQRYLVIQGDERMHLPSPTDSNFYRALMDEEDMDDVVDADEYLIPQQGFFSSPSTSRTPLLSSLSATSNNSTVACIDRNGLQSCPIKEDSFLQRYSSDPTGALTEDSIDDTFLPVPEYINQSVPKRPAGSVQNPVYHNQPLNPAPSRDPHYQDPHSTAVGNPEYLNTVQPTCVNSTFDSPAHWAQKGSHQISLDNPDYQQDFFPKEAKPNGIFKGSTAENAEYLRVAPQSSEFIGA
Experimental for EGFR: Cells were then analyzed using the flow cytometer BD FACS Canto II and the results were interpreted with FlowJo7.6.4 software (Tree Star, Ashland, OR, 4. EGFR Kinase Inhibitory Activity
ADP-Glo™ Kinase Assay (Promega, Catalogue No. V3831) which is a luminescent kinase assay that measures ADP formed from a kinase reaction. ADP is converted into ATP which is converted into light by Ultra‐Glo™ Luciferase. The luminescent signal positively correlates with ADP amount and kinase activity.
Protocol: first dilute enzyme, substrate, ATP and inhibitors in Tyrosine Kinase Buffer (40 mM Tris,7.5; 20 mM MgCl2; 0.1 mg/ml BSA (bovine serum albumin); 2 mM MnCl2; 50μM DTT),
and 2 μl of substrate/ATP mix. Incubate at room temperature for 60 minutes, add 5 μl of ADP‐ Glo™ Reagent, incubate at room temperature for 40 minutes, add 10 μl of Kinase Detection reagent, incubate at room temperature for 30 minutes and finally record luminescence (Integration time 0.5‐1second).

Consider `O=C1N=C(N2N=C(c3cccc4ccccc34)CC2c2ccc(F)cc2)S/C1=C/c1ccccc1` (stereo not shown) [Compound 9a], for which the half-maximal inhibitory concentration (IC50) with MDA-MB-231 (setting [3]) is 19.8 ± 1.08 µM; in the assay on T-47D it was more than 100 µM; with T-47D (Homo sapiens, T47D, 48 h), more than 100 µM. The “IC50 T-47D” value in the assay on T-47D was “inactive”.

Take `O=C1N=C(N2N=C(c3cccc4ccccc34)CC2c2ccc(F)cc2)S/C1=C/c1ccc(O)cc1` (stereo not shown) [Compound 9b]: the concentration for half-maximal inhibition (IC50) with MDA-MB-231 (setting [3]) turned out to be 12.2 ± 0.67 µM; in the assay with T-47D (Homo sapiens, T47D, 48 h) it was 18.6 ± 0.87 µM.

Consider `CN(C)c1ccc(/C=C2/SC(N3N=C(c4cccc5ccccc45)CC3c3ccc(F)cc3)=NC2=O)cc1` (stereo not shown) [Compound 9c], for which the half-maximal inhibitory concentration (IC50) with T-47D (Homo sapiens, T47D, 48 h) stood at 8.45 ± 0.27 µM; in the assay on MCF-10A, 47 ± 3.52 µM.

Consider `COc1ccccc1/C=C1/SC(N2N=C(c3cccc4ccccc34)CC2c2ccc(F)cc2)=NC1=O` (stereo not shown) [Compound 9d], for which the IC50 with MDA-MB-231 (setting [3]) was 45 ± 2.45 µM; in the assay with T-47D, more than 100 µM; with T-47D (Homo sapiens, T47D, 48 h) it was more than 100 µM. Moreover, the “IC50 T-47D” value in the assay on T-47D was “inactive”.

Consider `COc1ccc(/C=C2/SC(N3N=C(c4cccc5ccccc45)CC3c3ccc(F)cc3)=NC2=O)cc1` (stereo not shown) [Compound 9e], for which the 50% inhibitory concentration (IC50) in the assay with MDA-MB-231 (setting [3]) came to 14.1 ± 0.77 µM; with T-47D (Homo sapiens, T47D, 48 h) it was 12.4 ± 0.33 µM.

Take `COc1cccc(/C=C2/SC(N3N=C(c4cccc5ccccc45)CC3c3ccc(F)cc3)=NC2=O)c1O` (stereo not shown) [Compound 9f]: the IC50 amounted to 27.1 ± 1.08 µM with T-47D (Homo sapiens, T47D, 48 h) and 42.6 ± 2.81 µM in the assay with MCF-10A.

`COc1ccc(C=C2SC(N3N=C(c4cccc5ccccc45)CC3c3ccc(F)cc3)=NC2=O)cc1O` (stereo not shown) [Compound 9g] returned a concentration for half-maximal inhibition (IC50) in the assay with T-47D (Homo sapiens, T47D, 48 h) of 3.14 ± 0.11 µM. Besides, in the assay with MCF-10A, the IC50 was found to be 31.7 ± 3.1 µM. In the assay on MDA-MB-231 cells [1], the “%Sub-G1” value is reported as 31.05% and the “%S” value is listed as 35.43%. Moreover, the “%G2/M” value with MDA-MB-231 cells [1] (control 12.31%) was 2%. In the assay with MDA-MB-231 cells [2], the “Late apoptosis (upper right %)” value is recorded as 23.93%, the “Early apoptosis (lower right %)” value turned out to be 8.39% and the “Total apoptosis (L.R % + U.R %)” value amounted to 32.32%. In addition, 0.267 ± 0.012 µM corresponded to half-maximal inhibition against EGFR (IC50).

For `COc1cc(/C=C2/SC(N3N=C(c4cccc5ccccc45)CC3c3ccc(F)cc3)=NC2=O)ccc1O` (stereo not shown) [Compound 9h], the concentration for half-maximal inhibition (IC50) was 5.82 ± 0.317 µM in the assay on MDA-MB-231 (48 h exposure); less than 10 µM in the assay on MDA-MB-231 (setting [3]); 11.4 ± 0.67 µM in the assay on T-47D (Homo sapiens, T47D, 48 h); 79.5 ± 5.27 µM with MCF-10A.

Turning to `O=C1N=C(N2N=C(c3cccc4ccccc34)CC2c2ccc(Cl)cc2)S/C1=C/c1ccccc1` (stereo not shown) [Compound 9i], the IC50 in the assay with MDA-MB-231 (setting [3]) was 24.7 ± 1.35 µM; with T-47D, more than 100 µM; with T-47D (Homo sapiens, T47D, 48 h), more than 100 µM. Also, the “IC50 T-47D” value in the assay with T-47D is “inactive”.

For `O=C1N=C(N2N=C(c3cccc4ccccc34)CC2c2ccc(Cl)cc2)S/C1=C/c1ccc(O)cc1` (stereo not shown) [Compound 9j], the IC50 in the assay on MDA-MB-231 (48 h exposure) was 6.24 ± 0.34 µM; with MDA-MB-231 (setting [3]) it was less than 10 µM; in the assay on T-47D (Homo sapiens, T47D, 48 h), 35.1 ± 2.04 µM; in the assay on MCF-10A, 65.4 ± 5.04 µM.

Turning to `CN(C)c1ccc(C=C2SC(N3N=C(c4cccc5ccccc45)CC3c3ccc(Cl)cc3)=NC2=O)cc1` (stereo not shown) [Compound 9k], in the assay with T-47D (Homo sapiens, T47D, 48 h), half-maximal inhibition (IC50) was put at 4.92 ± 0.28 µM. Moreover, the IC50 in the assay on MCF-10A stood at 58.5 ± 4.36 µM. For the same molecule, in the assay with MDA-MB-231 cells [1], the “%Sub-G1” value is on record as 27.86% and the “%S” value was found to be 28.45%. Moreover, the “%G0-G1” value in the assay with MDA-MB-231 cells [1] (control 53.45%) is reported as 40.61%. Moreover, in the assay with MDA-MB-231 cells [2], the “Late apoptosis (upper right %)” value is 20%, the “Early apoptosis (lower right %)” value amounted to 14.22% and the “Total apoptosis (L.R % + U.R %)” value stood at 34.22%. This molecule showed an IC50 on EGFR of 0.395 ± 0.017 µM.

On to `COc1ccccc1/C=C1/SC(N2N=C(c3cccc4ccccc34)CC2c2ccc(Cl)cc2)=NC1=O` (stereo not shown) [Compound 9l], for which the IC50 in the assay with MDA-MB-231 (setting [3]) was 58 ± 3.16 µM; in the assay with T-47D it was more than 100 µM; in the assay with T-47D (Homo sapiens, T47D, 48 h), more than 100 µM. In addition, in the assay on T-47D, the “IC50 T-47D” value was “inactive”.

Consider `COc1ccc(/C=C2/SC(N3N=C(c4cccc5ccccc45)CC3c3ccc(Cl)cc3)=NC2=O)cc1` (stereo not shown) [Compound 9m], for which the IC50 with MDA-MB-231 (setting [3]) was 18.9 ± 1.03 µM; with T-47D (Homo sapiens, T47D, 48 h), 27.6 ± 1.24 µM.

For `COc1cccc(/C=C2/SC(N3N=C(c4cccc5ccccc45)CC3c3ccc(Cl)cc3)=NC2=O)c1O` (stereo not shown) [Compound 9n], the half-inhibitory concentration (IC50) in the assay with MDA-MB-231 (setting [3]) is 35.1 ± 1.92 µM; with T-47D (Homo sapiens, T47D, 48 h) it was 67.3 ± 2.51 µM.

For the molecule `COc1ccc(/C=C2/SC(N3N=C(c4cccc5ccccc45)CC3c3ccc(Cl)cc3)=NC2=O)cc1O` (stereo not shown) [Compound 9o], the IC50 worked out at 10.8 ± 0.59 µM in the assay on MDA-MB-231 (setting [3]) and 7.36 ± 0.3 µM with T-47D (Homo sapiens, T47D, 48 h).

Regarding `COc1cc(/C=C2/SC(N3N=C(c4cccc5ccccc45)CC3c3ccc(Cl)cc3)=NC2=O)ccc1O` (stereo not shown) [Compound 9p], the IC50 with MDA-MB-231 (48 h exposure) came out at 6.55 ± 0.357 µM; in the assay on MDA-MB-231 (setting [3]) it was 10.8 ± 0.59 µM; in the assay with T-47D (Homo sapiens, T47D, 48 h), 19.5 ± 0.92 µM; with MCF-10A, 83.6 ± 6.74 µM.

Consider `COc1cccc2c1C(=O)c1c(O)c3c(c(O)c1C2=O)C[C@@](O)(C(=O)CO)C[C@@H]3O[C@H]1C[C@H](N)[C@H](O)[C@H](C)O1` [Doxorubicin, reference compound], for which the IC50 is 3.67 ± 0.2 µM in the assay with MDA-MB-231 (setting [3]) and 2.73 ± 0.09 µM with T-47D (Homo sapiens, T47D, 48 h).

Take `C#Cc1cccc(Nc2ncnc3cc(OCCOC)c(OCCOC)cc23)c1` [Erlotinib, reference compound]: the IC50 with MDA-MB-231 (Homo sapiens, MDA-MB-231, 48 h exposure) turned out to be 2.88 ± 0.17 µM; with T-47D (Homo sapiens, T47D), 3.61 ± 0.24 µM.
